# Results published in patent US20220348876A1, “METABOLISM GUIDES DEFINITIVE LINEAGE SPECIFICATION DURING ENDOTHELIAL TO HEMATOPOIETIC TRANSITION” (Amniotics AB, priority 2019, published 2022).
# Where two headings read alike, the source gives them in different places.
# Experiments:
# [1] = tested on: HE cells; assay: HE cell subculture with compounds, flow cytometry; format: cell-based, human; conditions: for HE-derived CD43+GPA+ cell output: day 3 of subculture vs control, UK5099 10 μM, DCA 3 mM
# Description: The RB9-CB1 human iPSC line was co-cultured with mouse embryonic fibroblasts (MEFs, Millipore), passaged every six days and processed to form embryoid bodies (EBs) as described previously (Guibentif, C. et al. Cell Reports 19, 10-19 (2017)). The differentiation protocol used in this study was previously described (Ditadi, A. & Sturgeon, C. M. Methods 101, 65-72 (2016)), however, small modifications were made to induce both primitive and definitive hematopoiesis, as indicated below and in FIG. 7, a. Newly-formed EBs were first kept in SFD medium supplemented with 1 ng/ml Activin A (on days 0-2) and 3 μM CHIR99021 (on day 2 only). At day 3, media was switched to “Day 3-SP34” medium supplemented with 1 ng/ml Activin A (on day 3 only) and 3 μM CHIR99021 (on day 3 only) until day 6. On day 6, media was replaced by “Day 6-SP34” medium, until day 8. In some experiments where indicated, to obtain a higher yield of HSC-like cells, EBs were kept until day 10: in this case, EBs were plated onto Matrigel (8 μg/cm^2, Corning)-coated dishes on day 8 and kept until day 10. Media was changed every day, except on days 5 and 7. On day 8 or 10 (as indicated), EBs were singularized with 5-6 rounds of 5-minute incubations with TryPLE Express (Thermo Fisher Scientific). CD34^+ cells were selected using the human CD34 MicroBead kit (Miltenyi Biotec) and stained with CD34-FITC, CD73-PE, VECad-PerCPCy5.5, CD38-PC7, CD184-APC, CD45-AF700, CD43-APCH7, GPA-eF450, CD90-BV605 and the viability marker 7AAD in order to sort HE (CD34^+CD43^−CXCR4^−CD73^−CD90^+VECad^+), EHT (CD34^+CD43^intCXCR4^−CD73^−CD90^+VECad^+) and HSC-like (CD34^+CD43^+CD90^+CD38^−) cells, according to previously described markers (Guibentif, C. et al. Cell Reports 19, 10-19 (2017); Harris, J. M. et al. Blood 121, 2483-2493 (2013) and Schenk, T. et al. Nat Med 18, 605-611 (2012)).
# Sorted HE (40,000), EHT (30,000) and HSC-like (5-20,000) cells were plated onto Matrigel (16 μg/cm^2, Corning)-coated 96-well flat bottom plates in HE medium (30) with 1% penicillin-streptomycin and kept in a humidified incubator at 37° C., 5% CO2, 4% O2 overnight. […] Media was changed and drugs were added every 2 days and cells were kept in a humidified incubator at 37° C., 5% CO2, 20% O2 for 6-7 days.
# (§1) To measure proliferation, cells were processed with the CellTrace Violet (CTV) kit according to manufacturer's instructions (10-minute incubation) and fluorescence was measured on a BD LSRFortessa. […] Flow cytometry outputs were analyzed on FlowJo Software, with initial gatings on SSC-A/FSC-A, FSC-H/FSC-A, SSC-H/SSC-A and 7-AAD to exclude doublets and dead cells in all experiments.
# [2] = tested on: HSC-like cells; assay: HSC-like cell subculture with compounds, flow cytometry; format: cell-based, human; conditions: day 3, 2-DG 1 mM
# [3] = tested on: EHT cells; assay: EHT cell subculture with compounds, flow cytometry; format: cell-based, human; conditions: EHT cells, day 3; 2-DG 1 mM
# Description: The RB9-CB1 human iPSC line was co-cultured with mouse embryonic fibroblasts (MEFs, Millipore), passaged every six days and processed to form embryoid bodies (EBs) as described previously (Guibentif, C. et al. Cell Reports 19, 10-19 (2017)). The differentiation protocol used in this study was previously described (Ditadi, A. & Sturgeon, C. M. Methods 101, 65-72 (2016)), however, small modifications were made to induce both primitive and definitive hematopoiesis, as indicated below and in FIG. 7, a. Newly-formed EBs were first kept in SFD medium supplemented with 1 ng/ml Activin A (on days 0-2) and 3 μM CHIR99021 (on day 2 only). At day 3, media was switched to “Day 3-SP34” medium supplemented with 1 ng/ml Activin A (on day 3 only) and 3 μM CHIR99021 (on day 3 only) until day 6. On day 6, media was replaced by “Day 6-SP34” medium, until day 8. […]
# as §1
# [4] = tested on: HE cells; assay: Lymphoid differentiation assay on OP9-DL1 stroma; format: cell-based, human; conditions: 3-day subculture in glutamine-free medium, then 35-day co-culture
# Protocol: Subculture day 3 HE cells cultured in the presence of UK5099 (10 μM), DCA (3 mM), or in glutamine-free medium with DMK (1.75 mM), nucleosides (1×) or NEAAs (1×), as indicated, were collected after a 2-minute incubation at 37° C. with StemPro Accutase Cell Dissociation Reagent and seeded onto 80% confluent OP9-DL1 stroma. Cells were cultured in OP9 medium with SCF (10 ng/ml), FLT3-L (10 ng/ml), IL-2 (5 ng/ml), IL-7 (5 ng/ml, first 15 days only) and IL-15 (10 ng/ml) with passaging onto new OP9-DL1 stroma every week, as described previously (Renoux, V. M. et al. Immunity 43, 394-407 (2015)). At day 35 of co-culture, cells were analyzed on a BD LSRFortessa.
# [5] = tested on: HE, EHT and HSC-like cells; conditions: 100 μM FCCP, all cell types
# Protocol: On days 3 and 6 of subculture, cells were collected after a 2-minute incubation at 37° C. with StemPro Accutase Cell Dissociation Reagent and stained with CD34-FITC, CD14-PE, CD33-PC7, CD11b-APC, CD45-AF700, CD43-APCH7, GPA-eF450, CD90-BV605 and the viability marker 7AAD and fluorescence was measured on a BD LSRII. To measure mitochondrial activity, cells were incubated with Tetramethylrhodamine ethyl ester (TMRE, 20 nM) for 30 minutes at 37° C. Negative controls were incubated with 100 μM FCCP for 30 minutes at 37° C., prior to TMRE staining. […] III and MFI levels—MFI FMO were calculated. […] III. To measure proliferation, cells were processed with the CellTrace Violet (CTV) kit according to manufacturer's instructions (10-minute incubation) and fluorescence was measured on a BD LSRFortessa. To measure EdU incorporation, HE cells were assessed on day 1 or 2 of subculture after 24 h EdU pulses, using Click-iT EdU Flow Cytometry Cell Proliferation Assay (Thermo Fisher Scientific, C10424), according to manufacturer's instructions. Flow cytometry outputs were analyzed on FlowJo Software, with initial gatings on SSC-A/FSC-A, FSC-H/FSC-A, SSC-H/SSC-A and 7-AAD to exclude doublets and dead cells in all experiments.
# [6] = day 6 of subculture vs control, BPTES 25 μM, 1-AA 4 mM, TCP 300 nM, C646 10 μM, CP 5 μM
smiles,measurement,setting,value
"N[C@@H]1C[C@H]1c1ccccc1 (racemic) [TCP, Tranylcypromine]",CD43+GPA+ cell frequency following UK5099 treatment of HE cells,[1],no increase
same,HE-derived CD43+CD45+ population,[1],more CD43^+CD45^+ cells
same,myeloid differentiation (CD43+CD45+CD33+CD11b+),[1],specifically increased
"CC(N)[PH](=O)O (stereo not drawn) [1-AA, 1-aminoethylphosphinic acid]",HE-derived CD43+GPA+ cell output,"[1]; BPTES 25 μM, 1-AA 4 mM",significant increase
same,levels of total CD43+ cells,"[1]; day 6, treated vs untreated",unchanged
same,HE-derived CD43+CD45+ population,[1]; [6],significant decrease
"O=CC[C@@H](O)[C@H](O)[C@H](O)CO [2-DG, 2-Deoxy-D-glucose]",proliferation rate (CellTrace Violet),[2],significantly reduced
same,generation of the CD43+GPA+ cell population,"[1]; day 3, % of the control, 2-DG 1 mM",less than 50%
same,CD43+ cell output from HE cells,"[1]; day 3 of subculture, 2-DG 1 mM",significantly reduced
same,generation of the CD43+CD45+ cell population,"[1]; day 6, % of the control, 2-DG 1 mM",less than 50%
same,proliferation rate (CellTrace Violet),[3],significantly reduced
O=C(Cc1ccccc1)Nc1nnc(CCSCCc2nnc(NC(=O)Cc3ccccc3)s2)s1 [BPTES],HE-derived CD43+GPA+ cell output,"[1]; BPTES 25 μM, 1-AA 4 mM",sharp decline
same,HE-derived CD43+CD45+ population,[1]; [6],sharp decline
CC1=NN(c2ccc(C(=O)O)cc2)C(=O)/C1=C\c1ccc(-c2cc(C)c(C)cc2[N+](=O)[O-])o1 [C646],HE-derived CD43+CD45+ population,[1]; [6],did not have an effect
O=C(c1c2ccccc2cc2ccccc12)N1CCC(N2CCC[C@@H](C(=O)N3CCOCC3)C2)CC1 [CP-640186],HE-derived CD43+CD45+ population,[1]; [6],had the same effect as DCA
"COC(=O)CCC(=O)C(=O)OC [DMK, dimethyl-ketoglutarate]",NK cell differentiation (CD45+CD56+),[4],allowed efficient NK cell differentiation
same,CD43+GPA+ population,"[1]; HE subcultures without glutamine, days 3 and 6, vs control",could not rescue
same,proliferation profile of HE cells (CTV),"[1]; glutamine deprivation, day 3, vs control",could not restore
same,percentage of CD43+ cells that have lost CD34 expression,"[1]; glutamine-free DMK-treated condition vs control, day 3",significantly decreased
same,rescue of CD43+ cell output from HE cells,"[1]; glutamine-free medium, day 3, DMK 1.75 mM",up to 60%
same,percentages of CD43+CD45+ cells,"[1]; glutamine-free medium, day 6, compared to the control",significant increase
"N#CC(C#N)=NNc1ccc(OC(F)(F)F)cc1 [FCCP, Carbonyl cyanide 4-(trifluoromethoxy)phenylhydrazone]",TMRE signal,[5],abrogated the TMRE signal
"CC(/C=C/C(=O)NO)=C\[C@@H](C)C(=O)c1ccc(N(C)C)cc1 [TSA, Trichostatin A]",emergence of CD43+ hematopoietic cells,"[1]; TSA 60 nM, day 3",impaired the emergence
CC(C)c1c(C(=O)Nc2ccccc2)c(-c2ccccc2)c(-c2ccc(F)cc2)n1CC[C@@H](O)C[C@@H](O)CC(=O)O [atorvastatin],effect of DCA on CD43+CD45+ cells,[1]; Ato 0.5 μM in combination with DCA 3 mM,abrogated the effect of DCA
